Assay results: PubChem BioAssay AID1963975 (Molecular Pharmacology Branch, DTP, NCI, 2024)
pIC50: −log10 of the molar value. Values belong to the compound of their own block, whether it stands above or below them.

Tested on: 624824-186-R-J2-PDC multicell spheroids, viability
Test: Anticancer human tumor 624824-186-R-J2-PDC patient-derived colon adenocarcinoma cell line growth inhibition [PI3K]
Conditions: for viability, T/C: stronger effect = lower value
In short: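 Complex 3D spheroids (cancer cells + endothelial HUVEC + mesenchymal stem cells); drug pairs of targeted agent x inavolisib/alpelisib/duvelisib/copanlisib; half-log series from ~Cmax, max 10 microM if Cmax unknown; endpoint viability.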

[1] = curve of first compound, second compound 0.00316 µM
[2] = curve of first compound, second compound 0.01 µM
[3] = curve of first compound, second compound 0.0316 µM
[4] = curve of first compound, second compound 0.1 µM
[5] = curve of first compound, second compound 0.316 µM
[6] = curve of first compound, second compound 1 µM
[7] = second compound 0.00316 µM, first compound 0.0316 µM
[8] = second compound 0.00316 µM, first compound 0.1 µM
[9] = second compound 0.00316 µM, first compound 0.316 µM
[10] = second compound 0.00316 µM, first compound 1 µM
[11] = second compound 0.00316 µM, first compound 3.16 µM
[12] = second compound 0.00316 µM, first compound 10 µM
[13] = second compound 0.01 µM, first compound 0.0316 µM
[14] = second compound 0.01 µM, first compound 0.1 µM
[15] = second compound 0.01 µM, first compound 0.316 µM
[16] = second compound 0.01 µM, first compound 1 µM
[17] = second compound 0.01 µM, first compound 3.16 µM
[18] = second compound 0.01 µM, first compound 10 µM
[19] = second compound 0.0316 µM, first compound 0.0316 µM
[20] = second compound 0.0316 µM, first compound 0.1 µM
[21] = second compound 0.0316 µM, first compound 0.316 µM
[22] = second compound 0.0316 µM, first compound 1 µM
[23] = second compound 0.0316 µM, first compound 3.16 µM
[24] = second compound 0.0316 µM, first compound 10 µM
[25] = second compound 0.1 µM, first compound 0.0316 µM
[26] = second compound 0.1 µM, first compound 0.1 µM
[27] = second compound 0.1 µM, first compound 0.316 µM
[28] = second compound 0.1 µM, first compound 1 µM
[29] = second compound 0.1 µM, first compound 3.16 µM
[30] = second compound 0.1 µM, first compound 10 µM
[31] = second compound 0.316 µM, first compound 0.0316 µM
[32] = second compound 0.316 µM, first compound 0.1 µM
[33] = second compound 0.316 µM, first compound 0.316 µM
[34] = second compound 0.316 µM, first compound 1 µM
[35] = second compound 0.316 µM, first compound 3.16 µM
[36] = second compound 0.316 µM, first compound 10 µM
[37] = second compound 1 µM, first compound 0.0316 µM
[38] = second compound 1 µM, first compound 0.1 µM
[39] = second compound 1 µM, first compound 0.316 µM
[40] = second compound 1 µM, first compound 1 µM
[41] = second compound 1 µM, first compound 3.16 µM
[42] = second compound 1 µM, first compound 10 µM
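Also: spheroids exposed to agents for 7 days before viability read.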
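For viability, T/C in this document: 100% = DMSO vehicle treated spheroids.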

Structure (SMILES): CC(C)NCC(C(=O)N1CCN(c2ncnc3c2C(C)CC3O)CC1)c1ccc(Cl)cc1 (configuration not stated) + COc1c(OCCCN2CCOCC2)ccc2c3n(c(=NC(=O)c4cnc(N)nc4)nc12)CCN3
pIC50 [1]: < 5.00 | pIC50 [2]: < 5.00 | pIC50 [3]: < 5.00 | pIC50 [4]: < 5.00 | pIC50 [5]: < 5.00 | pIC50 [6]: < 5.00 | viability, T/C [7]: 117% | viability, T/C [8]: 85% | viability, T/C [9]: 81.3% | viability, T/C [10]: 89.2% | viability, T/C [11]: 78.7% | viability, T/C [12]: 75.2% | viability, T/C [13]: 97.2% | viability, T/C [14]: 96.4% | viability, T/C [15]: 85.7% | viability, T/C [16]: 77.4% | viability, T/C [17]: 87.4% | viability, T/C [18]: 79.8% | viability, T/C [19]: 91.6% | viability, T/C [20]: 84.5% | viability, T/C [21]: 73.6% | viability, T/C [22]: 89.7% | viability, T/C [23]: 70.5% | viability, T/C [24]: 78.3% | viability, T/C [25]: 76% | viability, T/C [26]: 75.5% | viability, T/C [27]: 68.7% | viability, T/C [28]: 63.2% | viability, T/C [29]: 77.4% | viability, T/C [30]: 64.7% | viability, T/C [31]: 60.1% | viability, T/C [32]: 66% | viability, T/C [33]: 62.1% | viability, T/C [34]: 67.3% | viability, T/C [35]: 62.3% | viability, T/C [36]: 66.3% | viability, T/C [37]: 58.6% | viability, T/C [38]: 54.3% | viability, T/C [39]: 62.4% | viability, T/C [40]: 61.7% | viability, T/C [41]: 65% | viability, T/C [42]: 56.5%

Structure (SMILES): Cn1ncc(Cl)c1-c1cc(C(=O)NC(CN)Cc2cccc(F)c2)sc1Cl (configuration not stated)
viability, T/C (compound 0.1 µM): 79.8% [middle of 4 runs] | viability, T/C (compound 0.316 µM): 74.5% [middle of 4 runs] | viability, T/C (compound 1 µM): 89.4% [middle of 4 runs] | viability, T/C (compound 3.16 µM): 68.2% [middle of 4 runs] | viability, T/C (compound 10 µM): 59.2% [middle of 4 runs] | pIC50 (curve of compound): < 5.00

Structure (SMILES): C=CC(=O)N1CCN(c2nc(=O)n(-c3c(C)ccnc3C(C)C)c3nc(-c4c(O)cccc4F)c(F)cc23)C(C)C1 (configuration not stated)
viability, T/C (compound 0.1 µM): 82% [middle of 4 runs] | viability, T/C (compound 0.316 µM): 82.1% [middle of 4 runs] | viability, T/C (compound 1 µM): 99.7% [middle of 4 runs] | viability, T/C (compound 10 µM): 100% [middle of 4 runs] | pIC50 (curve of compound): < 5.00

Further lines, with some results ahead:

pIC50 [1]: 5.41 | pIC50 [2]: 5.44 | pIC50 [3]: 5.38 | pIC50 [4]: 5.50 | pIC50 [5]: 5.46 | pIC50 [6]: 5.49
Structure (SMILES): CC1(C)CCC(Nc2ncc(C(F)(F)F)c(-c3c[nH]c4c(P(C)(C)=O)c(C#N)ccc34)n2)CN1 (configuration not stated) + CC(Nc1ccc2c(c1)OCCn1cc(N3C(=O)OCC3C(F)F)nc1-2)C(N)=O
viability, T/C [7]: 73.8% | viability, T/C [8]: 84.7% | viability, T/C [9]: 86.4% | viability, T/C [10]: 98.7% | viability, T/C [11]: 59.7% | viability, T/C [12]: 7.81% | viability, T/C [13]: 71.8% | viability, T/C [14]: 70.3% | viability, T/C [15]: 85% | viability, T/C [16]: 99.8% | viability, T/C [17]: 55.6% | viability, T/C [18]: 7.27% | viability, T/C [19]: 66.1% | viability, T/C [20]: 72.4% | viability, T/C [21]: 93.3% | viability, T/C [22]: 108% | viability, T/C [23]: 63.9% | viability, T/C [24]: 5.65% | viability, T/C [25]: 74.4% | viability, T/C [26]: 85.3% | viability, T/C [27]: 87.1% | viability, T/C [28]: 105% | viability, T/C [29]: 50% | viability, T/C [30]: 5.2% | viability, T/C [31]: 68.2% | viability, T/C [32]: 81.9% | viability, T/C [33]: 90.2% | viability, T/C [34]: 93.7% | viability, T/C [35]: 53.9% | viability, T/C [36]: 4.99% | viability, T/C [37]: 78.5% | viability, T/C [38]: 83.1% | viability, T/C [39]: 91.1% | viability, T/C [40]: 72.9% | viability, T/C [41]: 51.5% | viability, T/C [42]: 5.93%

pIC50 [3]: < 5.00 | pIC50 [4]: < 5.00 | pIC50 [5]: < 5.00 | pIC50 [6]: < 5.00 | pIC50 (curve of first compound, second compound 3.16 µM): < 5.00 | pIC50 (curve of first compound, second compound 10 µM): < 5.00
Structure (SMILES): C[C@@H](NC(=O)c1ncnc(N)c1Cl)c1ncc(C(=O)Nc2cc(C(F)(F)F)c(Cl)cn2)s1 + CC(Nc1ncnc2nc[nH]c12)c1cc2cccc(Cl)c2c(=O)n1-c1ccccc1
viability, T/C [19]: 94% | viability, T/C [20]: 106% | viability, T/C [21]: 78.6% | viability, T/C [22]: 69.9% | viability, T/C [23]: 55.4% | viability, T/C [24]: 67.2% | viability, T/C [25]: 85.3% | viability, T/C [26]: 82.3% | viability, T/C [27]: 81.1% | viability, T/C [28]: 67.7% | viability, T/C [29]: 57% | viability, T/C [30]: 56% | viability, T/C [31]: 100% | viability, T/C [32]: 99.3% | viability, T/C [33]: 89.8% | viability, T/C [34]: 65.4% | viability, T/C [35]: 55.9% | viability, T/C [36]: 58% | viability, T/C [37]: 110% | viability, T/C [38]: 85.6% | viability, T/C [39]: 87.3% | viability, T/C [40]: 63.1% | viability, T/C [41]: 55% | viability, T/C [42]: 54.1% | viability, T/C (second compound 3.16 µM, first compound 0.0316 µM): 94.5% | viability, T/C (second compound 3.16 µM, first compound 0.1 µM): 93.9% | viability, T/C (second compound 3.16 µM, first compound 0.316 µM): 65.4% | viability, T/C (second compound 3.16 µM, first compound 1 µM): 65.6% | viability, T/C (second compound 3.16 µM, first compound 3.16 µM): 54.7% | viability, T/C (second compound 3.16 µM, first compound 10 µM): 59.6% | viability, T/C (second compound 10 µM, first compound 0.0316 µM): 95.9% | viability, T/C (second compound 10 µM, first compound 0.1 µM): 92% | viability, T/C (second compound 10 µM, first compound 0.316 µM): 99.9% | viability, T/C (second compound 10 µM, first compound 1 µM): 77.2% | viability, T/C (second compound 10 µM, first compound 3.16 µM): 65.7% | viability, T/C (second compound 10 µM, first compound 10 µM): 57.8%
